Experimental data published in US20240199558A1, “2,4,6-TRISUBSTITUTED 1,3,5-TRIAZINES AS MODULATORS OF CX3CR1” (ASTRAZENECA AB, priority 2022, published 2024).

Molecular target: CX3CR1 (Homo sapiens (Human), UniProt P49238)
Test: hCX3CR1 [3H]-AZD8797 competitive binding assay (filter)
Conditions: CHO-hCX3CR1 membranes, 2 nM [3H]-AZD8797
Description: hCX3CR1 [^3H]-AZD8797 Competitive Binding Assay (Filter)
CHO-hCX3CR1 membranes (9 μg per well) together with 2 nM [^3H]-AZD8797 and different concentrations of competitor compound were incubated in 25 mM HEPES (pH 7.4), 10 mM MgCl2, 1 mM CaCl2) and 0.5% BSA in a Corning polystyrene flat-bottom 96-well plate. The plate was incubated for 2 h at room temperature before free radioligand was separated from bound by vacuum filtration on to a Multiscreen HTS+HiFlow FB (Millipore) filter plate, using a Biomek FX (Beckman Coulter). The filter plate was washed in ice-cold 25 mM HEPES (pH 7.4), 5 mM MgCl2, 1 mM CaCl2) and 500 mM NaCl and dried at 50° C. for 1 h. Scintillation cocktail, Optiphase Supermix (PerkinElmer) was added to each well and the radioactivity was measured using a MicroBeta Trilux reader (PerkinElmer). The DMSO concentration was held constant at 1%.

Chain of CX3CR1 (P49238 whole entry): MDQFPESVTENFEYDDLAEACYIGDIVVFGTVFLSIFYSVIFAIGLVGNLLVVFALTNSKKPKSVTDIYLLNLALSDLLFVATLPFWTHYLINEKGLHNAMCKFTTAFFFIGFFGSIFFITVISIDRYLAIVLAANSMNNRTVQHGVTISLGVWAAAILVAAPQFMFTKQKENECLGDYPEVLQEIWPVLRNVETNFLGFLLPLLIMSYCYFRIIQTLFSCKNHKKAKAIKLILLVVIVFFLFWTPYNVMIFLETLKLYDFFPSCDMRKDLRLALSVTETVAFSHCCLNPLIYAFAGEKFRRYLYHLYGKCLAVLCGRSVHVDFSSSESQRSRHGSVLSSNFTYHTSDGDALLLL

Compound | IC50 [µM]
CC(C)C[C@H](CO)Nc1nc(CC(C)c2ccc(C(C)(F)F)cc2)nc(NS(C)(=O)=O)n1 (stereo partly drawn) [Example 71, N-(4-(2-(4-(1,1-Difluoroethyl)phenyl)propyl)-6-(((R)-1-hydroxy-4-methylpentan-2-yl)amino)-1,3,5-triazin-2-yl)methanesulfonamide] | 0.331
COc1cc(C)c([C@@H](C)Cc2nc(N[C@@H](CO)CC(C)C)nc(NS(C)(=O)=O)n2)cn1 (single isomer, unassigned) [Example 14, N-(4-(((R)-1-Hydroxy-4-methylpentan-2-yl)amino)-6-((S*)-2-(6-methoxy-4-methylpyridin-3-yl)propyl)-1,3,5-triazin-2-yl)methanesulfonamide] | > 10
CC(C)C[C@H](CO)Nc1nc(C[C@H](C)c2cc(F)c(Cl)c(F)c2)nc(NS(C)(=O)=O)n1 (single isomer, unassigned) [Example 32, N-(4-((S*)-2-(4-Chloro-3,5-difluorophenyl)propyl)-6-(((R)-1-hydroxy-4-methylpentan-2-yl)amino)-1,3,5-triazin-2-yl)methanesulfonamide] | 7.56
CC(C)C[C@H](CO)Nc1nc(C[C@H](C)c2cc(Cl)ccc2F)nc(NS(C)(=O)=O)n1 (single isomer, unassigned) [Example 29, N-(4-((S*)-2-(5-Chloro-2-fluorophenyl)propyl)-6-(((R)-1-hydroxy-4-methylpentan-2-yl)amino)-1,3,5-triazin-2-yl)methanesulfonamide] | 0.794
Cc1ccc(C(C)Cc2nc(N[C@@H](CO)CC(C)C)nc(NS(C)(=O)=O)n2)cc1C (stereo partly drawn) [Example 70, N-(4-(2-(3,4-Dimethylphenyl)propyl)-6-(((R)-1-hydroxy-4-methylpentan-2-yl)amino)-1,3,5-triazin-2-yl)methanesulfonamide] | 0.298

Stronger by IC50, values ahead:

IC50 [µM] | Compound
0.257 | CC(C)C[C@H](CO)Nc1nc(CC(C)c2ccc3c(=O)n(C)cnc3c2)nc(NS(C)(=O)=O)n1 (stereo partly drawn) [Example 126, N-(4-(((R)-1-Hydroxy-4-methylpentan-2-yl)amino)-6-(2-(3-methyl-4-oxo-3,4-dihydroquinazolin-7-yl)propyl)-1,3,5-triazin-2-yl)methanesulfonamide]
0.222 | CC(C)C[C@H](CO)Nc1nc(C[C@@H](C)c2ccc(F)c(Cl)c2)nc(NS(C)(=O)=O)n1 (single isomer, unassigned) [Example 66, N-(4-((R*)-2-(3-Chloro-4-fluorophenyl)propyl)-6-(((R)-1-hydroxy-4-methylpentan-2-yl)amino)-1,3,5-triazin-2-yl)methanesulfonamide]
0.175 | CC(C)C[C@H](CO)Nc1nc(CC(C)c2ccc(OC(C)C)c(F)c2)nc(NS(C)(=O)=O)n1 (stereo partly drawn) [Example 140, N-(4-(2-(3-Fluoro-4-isopropoxyphenyl)propyl)-6-(((R)-1-hydroxy-4-methylpentan-2-yl)amino)-1,3,5-triazin-2-yl)methanesulfonamide]
0.16 | CC(C)C[C@H](CO)Nc1nc(CC(C)c2ccc3c(c2)oc(=O)n3C)nc(NS(C)(=O)=O)n1 (stereo partly drawn) [Example 100, N-(4-(((R)-1-Hydroxy-4-methylpentan-2-yl)amino)-6-(2-(3-methyl-2-oxo-2,3-dihydrobenzo[d]oxazol-6-yl)propyl)-1,3,5-triazin-2-yl)methanesulfonamide]
0.079 | CC(C)C[C@H](CO)Nc1nc(CC(C)c2ccc3c(c2)CN(C)C(=O)C3)nc(NS(C)(=O)=O)n1 (stereo partly drawn) [Example 130, N-(4-(((R)-1-Hydroxy-4-methylpentan-2-yl)amino)-6-(2-(2-methyl-3-oxo-1,2,3,4-tetrahydroisoquinolin-7-yl)propyl)-1,3,5-triazin-2-yl)methanesulfonamide]
0.03 | CC(C)C[C@H](CO)Nc1nc(C[C@@H](C)c2c(F)ccc(F)c2F)nc(NS(C)(=O)=O)n1 (single isomer, unassigned) [Example 42, N-(4-(((R)-1-Hydroxy-4-methylpentan-2-yl)amino)-6-((R*)-2-(2,3,6-trifluorophenyl)propyl)-1,3,5-triazin-2-yl)methanesulfonamide]
